Results as given in PubChem BioAssay (NCI).
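Five compound concentrations were applied to cells in 96-well plates for 48 hours; endpoints were derived by simple linear interpolation of the resulting dose-response curve. At the GI50, growth is halved. TGI is the concentration that stops growth completely.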

Experiments:
Assay in all cases: NCI anticancer screen, dose series, 48 h
[1] = test system: 786-0 renal
[2] = test system: A498 renal
[3] = test system: A549 NSCLC
[4] = test system: ACHN renal
[5] = test system: BT-549 breast
[6] = test system: CAKI-1 renal
[7] = test system: CCRF-CEM leukemia
[8] = test system: COLO 205 colon
[9] = test system: DU-145 prostate
[10] = test system: EKVX NSCLC
[11] = test system: HCC-2998 colon
[12] = test system: HCT-116 colon
[13] = test system: HCT-15 colon
[14] = test system: HL-60(TB) leukemia
[15] = test system: HOP-62 NSCLC
[16] = test system: HOP-92 NSCLC
[17] = test system: HS 578T breast
[18] = test system: HT29 colon
[19] = test system: IGROV1 ovarian
[20] = test system: K-562 leukemia
[21] = test system: KM12 colon
[22] = test system: LOX IMVI melanoma
[23] = test system: M14 melanoma
[24] = test system: MALME-3M melanoma
[25] = test system: MCF7 breast
[26] = test system: MDA-MB-435
[27] = test system: MOLT-4 leukemia
[28] = test system: NCI-H226 lung
[29] = test system: NCI-H23 lung
[30] = test system: NCI-H460 lung
[31] = test system: NCI-H522 lung
[32] = test system: NCI/ADR-RES ovarian
[33] = test system: OVCAR-3 ovarian
[34] = test system: OVCAR-4 ovarian
[35] = test system: OVCAR-5 ovarian
[36] = test system: PC-3 prostate
[37] = test system: RPMI-8226 leukemia
[38] = test system: RXF 393 renal
[39] = test system: SF-268 CNS
[40] = test system: SF-295 CNS
[41] = test system: SF-539 CNS
[42] = test system: SK-MEL-2 melanoma
[43] = test system: SK-MEL-28 melanoma
[44] = test system: SK-MEL-5 melanoma
[45] = test system: SK-OV-3 ovarian
[46] = test system: SNB-19 CNS
[47] = test system: SNB-75 CNS
[48] = test system: SR leukemia
[49] = test system: SW-620 colon
[50] = test system: T-47D breast
[51] = test system: TK-10 renal
[52] = test system: U251 CNS
[53] = test system: UACC-257 melanoma
[54] = test system: UACC-62 melanoma
[55] = test system: UO-31 renal

## O=C1C2C(C(=O)[N]1[Hg][c]1cccs1)C1(Cl)C(Cl)=C(Cl)C2(Cl)C1(Cl)Cl (stereo not drawn)
[1]
  GI50: 670 nM
  TGI: 1810 nM
[2]
  GI50: 2290 nM
  TGI: 6050 nM
[3]
  GI50: 5940 nM
  TGI: 16700 nM
[4]
  GI50: 1610 nM
  TGI: 3040 nM
[5]
  GI50: 984 nM
  TGI: 2240 nM
[6]
  GI50: 1290 nM
  TGI: 2640 nM
[7]
  GI50: 290 nM
[8]
  GI50: 1220 nM
  TGI: 2650 nM
[9]
  GI50: 1800 nM
  TGI: 4720 nM
[10]
  GI50: 1830 nM
  TGI: 4200 nM
[11]
  GI50: 1970 nM
  TGI: 3590 nM
[12]
  GI50: 1250 nM
  TGI: 2540 nM
[13]
  GI50: 821 nM
  TGI: 2270 nM
[14]
  GI50: 1290 nM
  TGI: 4630 nM
[15]
  GI50: 2520 nM
  TGI: 6840 nM
[16]
  GI50: 1580 nM
  TGI: 3030 nM
[17]
  GI50: 2410 nM
  TGI: 11500 nM
[18]
  GI50: 649 nM
  TGI: 3570 nM
[19]
  GI50: 1290 nM
  TGI: 3520 nM
[20]
  GI50: 291 nM
  TGI: 3410 nM
[21]
  GI50: 11700 nM
  TGI: 24300 nM
[22]
  GI50: 708 nM
  TGI: 1940 nM
[23]
  GI50: 1140 nM
  TGI: 2680 nM
[24]
  GI50: 1220 nM
  TGI: 2790 nM
[25]
  GI50: 386 nM
  TGI: 1940 nM
[26]
  GI50: 1470 nM
  TGI: 3050 nM
[27]
  GI50: 371 nM
  TGI: 5010 nM
[28]
  GI50: 6880 nM
  TGI: 37800 nM
[29]
  GI50: 1620 nM
  TGI: 3140 nM
[30]
  GI50: 3040 nM
  TGI: 10100 nM
[31]
  GI50: 162 nM
  TGI: 432 nM
[32]
  GI50: 2070 nM
  TGI: 4800 nM
[33]
  GI50: 283 nM
  TGI: 904 nM
[34]
  GI50: 1240 nM
  TGI: 2510 nM
[35]
  GI50: 1850 nM
  TGI: 3610 nM
[36]
  GI50: 1720 nM
  TGI: 4180 nM
[37]
  GI50: 1410 nM
  TGI: 6380 nM
[38]
  GI50: 1500 nM
  TGI: 3000 nM
[39]
  GI50: 1410 nM
  TGI: 2840 nM
[40]
  GI50: 3110 nM
  TGI: 8530 nM
[41]
  GI50: 2080 nM
  TGI: 4760 nM
[42]
  GI50: 1560 nM
  TGI: 3230 nM
[43]
  GI50: 1240 nM
  TGI: 2700 nM
[44]
  GI50: 1550 nM
  TGI: 3060 nM
[45]
  GI50: 5710 nM
  TGI: 17900 nM
[46]
  GI50: 1720 nM
  TGI: 3400 nM
[47]
  GI50: 1370 nM
  TGI: 4810 nM
[48]
  GI50: 146 nM
[49]
  GI50: 1020 nM
  TGI: 3080 nM
[50]
  GI50: 570 nM
  TGI: 2940 nM
[51]
  GI50: 1650 nM
  TGI: 3040 nM
[52]
  GI50: 466 nM
  TGI: 1680 nM
[53]
  GI50: 1280 nM
  TGI: 2830 nM
[54]
  GI50: 1270 nM
  TGI: 2890 nM
[55]
  GI50: 1740 nM
  TGI: 3210 nM
